# US12168059B2, “Trimeric peptides for antisense delivery” (Sarepta Therapeutics, Inc., priority 2018, dated 2024)
# Where no end group is shown, it is not given here.
# Test system: HeLa-654 cells
# Experiment: HeLa-654 eGFP assay (flow cytometry: mean fluorescence, gated cell count, F×C)
# Type: cell-based, human
# Description: With the 36 constructs synthesized, the ability to modulate PMO activity using the modified HeLa cell assay was tested. The HeLa-654 cells were stably transfected to express a nonfluorescent eGFP protein. The eGFP gene is interrupted by a mutant intron from the human β-globin gene (IVS2-654). The insertion alters pre-mRNA splicing to cause retention of a fragment in the mature mRNA that results in a nonfluorescent protein. PMO IVS2-654 base-pairs with the β-globin insertion, modifies mRNA splicing, and thereby leads to expression of fluorescent eGFP.
# For treatment, the crude reaction mixture was diluted to 5 μM in media. The concentration of the modular construct was calculated based on the original concentration of the module 1-2 conjugate mixed in the reaction. Using media containing 10% fetal bovine serum (FBS), the cells were treated with each construct for 22 hours, after which the cellular fluorescence was measured by flow cytometry.
# The different modules led to several noticeable trends in the level of cellular fluorescence (FIG. 4). When module 2 was DPV6, the overall construct consistently led to high fluorescence, regardless of which peptides were placed in module 3 and 4. However, when either pVEC or TP10 was placed in module 2, minor cellular fluorescence was observed. […]
substance,measurement,setting,value
W/R: W/R peptide (RRWWRRWRR) conjugated to PMO on its own (also: conjugated to PMO (position not given here)),activity relative to PMO by itself,single peptide conjugated to PMO on its own,around 3 ×
copper,"cell viability, in words",low micromolar concentrations of copper in cell culture,did not affect cell viability
